≈ marks a conversion by molar mass, not a printed value.
Experiments:
Format in all cases: functional
[1] = test system: Staphylococcus aureus; experiment: Antibacterial activity against methicillin-sensitive Staphylococcus aureus 04-4 after 18 to 24 hrs
[2] = test system: Staphylococcus aureus; experiment: Antibacterial activity against methicillin-resistant Staphylococcus aureus 05-3 after 18 to 24 hrs
[3] = test system: Streptococcus pneumoniae; experiment: Antibacterial activity against Streptococcus pneumoniae 05-9 after 18 to 24 hrs
[4] = test system: Enterococcus faecalis; experiment: Antibacterial activity against Enterococcus faecalis 03-4 after 18 to 24 hrs
[5] = test system: Escherichia coli; experiment: Antibacterial activity against Escherichia coli ATCC 25922 after 18 to 24 hrs
[6] = test system: Klebsiella pneumoniae; experiment: Antibacterial activity against Klebsiella pneumoniae 05-4 after 18 to 24 hrs
[7] = test system: Pseudomonas aeruginosa; experiment: Antibacterial activity against Pseudomonas aeruginosa […] after 18 to 24 hrs

## CO/N=C1\CCN(c2nc3c(cc2F)c(=O)c(C(=O)O)cn3C2CC2)CC1NC1CC1 (stereo not drawn)
[1]
  MIC: 0.015 µg/mL (≈ 0.0349 µM)
[2]
  MIC: 2 µg/mL (≈ 4.66 µM)
[3]
  MIC: 0.004 µg/mL (≈ 0.00931 µM)
[4]
  MIC: 0.004 µg/mL (≈ 0.00931 µM)
[5]
  MIC: 16 µg/mL (≈ 37.3 µM)
[6]
  MIC: 16 µg/mL (≈ 37.3 µM)
[7]
  MIC: 8 µg/mL (≈ 18.6 µM)

## CO/N=C1\CN(c2nc3c(cc2F)c(=O)c(C(=O)O)cn3C2CC2)CC1CN (stereo not drawn) [GEMIFLOXACIN]
[1]
  MIC: 0.004 µg/mL (≈ 0.0103 µM)
[2]
  MIC: 0.004 µg/mL (≈ 0.0103 µM)
[3]
  MIC: 0.004 µg/mL (≈ 0.0103 µM)
[4]
  MIC: 0.004 µg/mL (≈ 0.0103 µM)
[5]
  MIC: 0.125 µg/mL (≈ 0.321 µM)
[6]
  MIC: 0.125 µg/mL (≈ 0.321 µM)
[7]
  MIC: 0.125 µg/mL (≈ 0.321 µM)

## CCCO/N=C1\CCN(c2nc3c(cc2F)c(=O)c(C(=O)O)cn3C2CC2)CC1NC (stereo not drawn)
[1]
  MIC: 0.03 µg/mL (≈ 0.0695 µM)
[2]
  MIC: 16 µg/mL (≈ 37.1 µM)
[3]
  MIC: 0.015 µg/mL (≈ 0.0348 µM)
[4]
  MIC: 0.015 µg/mL (≈ 0.0348 µM)
[5]
  MIC: 8 µg/mL (≈ 18.5 µM)
[6]
  MIC: 8 µg/mL (≈ 18.5 µM)
[7]
  MIC: 2 µg/mL (≈ 4.64 µM)

## CCO/N=C1\CCN(c2nc3c(cc2F)c(=O)c(C(=O)O)cn3C2CC2)CC1NC (stereo not drawn)
[1]
  MIC: < 0.001 µg/mL
[2]
  MIC: 4 µg/mL (≈ 9.58 µM)
[3]
  MIC: < 0.001 µg/mL
[4]
  MIC: < 0.001 µg/mL
[5]
  MIC: 8 µg/mL (≈ 19.2 µM)
[6]
  MIC: 16 µg/mL (≈ 38.3 µM)
[7]
  MIC: 1 µg/mL (≈ 2.4 µM)

## CO/N=C1\CN(c2nc3c(cc2F)c(=O)c(C(=O)O)cn3C2CC2)CCC1NC1CC1 (stereo not drawn)
[1]
  MIC: 0.015 µg/mL (≈ 0.0349 µM)
[2]
  MIC: 2 µg/mL (≈ 4.66 µM)
[3]
  MIC: 0.004 µg/mL (≈ 0.00931 µM)
[4]
  MIC: 0.004 µg/mL (≈ 0.00931 µM)
[5]
  MIC: 16 µg/mL (≈ 37.3 µM)
[6]
  MIC: 16 µg/mL (≈ 37.3 µM)
[7]
  MIC: 1 µg/mL (≈ 2.33 µM)

## CNC1CCN(c2nc3c(cc2F)c(=O)c(C(=O)O)cn3C2CC2)C/C1=N\OC (stereo not drawn)
[1]
  MIC: < 0.001 µg/mL
[2]
  MIC: 0.5 µg/mL (≈ 1.24 µM)
[3]
  MIC: < 0.001 µg/mL
[4]
  MIC: < 0.001 µg/mL
[5]
  MIC: 1 µg/mL (≈ 2.48 µM)
[6]
  MIC: 1 µg/mL (≈ 2.48 µM)
[7]
  MIC: 0.06 µg/mL (≈ 0.149 µM)

## CN[C@H](CC(C)C)C(=O)N[C@H]1C(=O)N[C@@H](CC(N)=O)C(=O)N[C@H]2C(=O)N[C@H]3C(=O)N[C@H](C(=O)N[C@H](C(=O)O)c4cc(O)cc(O)c4-c4cc3ccc4O)[C@H](O)c3ccc(c(Cl)c3)Oc3cc2cc(c3O[C@@H]2O[C@H](CO)[C@@H](O)[C@H](O)[C@H]2O[C@H]2C[C@](C)(N)[C@H](O)[C@H](C)O2)Oc2ccc(cc2Cl)[C@H]1O [VANCOMYCIN]
[3]
  MIC: 0.004 µg/mL (≈ 0.00276 µM)

## CNC1CCN(c2nc3c(cc2F)c(=O)c(C(=O)O)cn3C2CC2)C/C1=N\OCc1ccccc1 (stereo not drawn)
[1]
  MIC: < 0.001 µg/mL
[2]
  MIC: 2 µg/mL (≈ 4.17 µM)
[3]
  MIC: < 0.001 µg/mL
[4]
  MIC: < 0.001 µg/mL
[5]
  MIC: 8 µg/mL (≈ 16.7 µM)
[6]
  MIC: 4 µg/mL (≈ 8.34 µM)
[7]
  MIC: 0.5 µg/mL (≈ 1.04 µM)

## CNC1CN(c2nc3c(cc2F)c(=O)c(C(=O)O)cn3C2CC2)CC/C1=N\OC (stereo not drawn)
[1]
  MIC: < 0.001 µg/mL
[2]
  MIC: 4 µg/mL (≈ 9.92 µM)
[3]
  MIC: < 0.001 µg/mL
[4]
  MIC: < 0.001 µg/mL
[5]
  MIC: 4 µg/mL (≈ 9.92 µM)
[6]
  MIC: 2 µg/mL (≈ 4.96 µM)
[7]
  MIC: 1 µg/mL (≈ 2.48 µM)

## CCO/N=C1\CCN(c2nc3c(cc2F)c(=O)c(C(=O)O)cn3C2CC2)CC1N(C)C (stereo not drawn)
[1]
  MIC: 0.015 µg/mL (≈ 0.0348 µM)
[2]
  MIC: 1 µg/mL (≈ 2.32 µM)
[3]
  MIC: 0.002 µg/mL (≈ 0.00464 µM)
[4]
  MIC: 0.004 µg/mL (≈ 0.00927 µM)
[5]
  MIC: 8 µg/mL (≈ 18.5 µM)
[6]
  MIC: 2 µg/mL (≈ 4.64 µM)
[7]
  MIC: 1 µg/mL (≈ 2.32 µM)

## CCCO/N=C1\CN(c2nc3c(cc2F)c(=O)c(C(=O)O)cn3C2CC2)CCC1NC (stereo not drawn)
[1]
  MIC: 0.06 µg/mL (≈ 0.139 µM)
[2]
  MIC: 2 µg/mL (≈ 4.64 µM)
[3]
  MIC: 0.03 µg/mL (≈ 0.0695 µM)
[4]
  MIC: 0.06 µg/mL (≈ 0.139 µM)
[5]
  MIC: 4 µg/mL (≈ 9.27 µM)
[6]
  MIC: 4 µg/mL (≈ 9.27 µM)
[7]
  MIC: 0.06 µg/mL (≈ 0.139 µM)

## CC(=O)NC[C@H]1CN(c2ccc(N3CCOCC3)c(F)c2)C(=O)O1 [LINEZOLID]
[1]
  MIC: 0.5 µg/mL (≈ 1.48 µM)
[2]
  MIC: 1 µg/mL (≈ 2.96 µM)
[4]
  MIC: 0.125 µg/mL (≈ 0.371 µM)

## CN(C)C1CN(c2nc3c(cc2F)c(=O)c(C(=O)O)cn3C2CC2)CC/C1=N\OCc1ccccc1 (stereo not drawn)
[1]
  MIC: 0.015 µg/mL (≈ 0.0304 µM)
[2]
  MIC: 4 µg/mL (≈ 8.1 µM)
[3]
  MIC: 0.015 µg/mL (≈ 0.0304 µM)
[4]
  MIC: 0.06 µg/mL (≈ 0.122 µM)
[5]
  MIC: 16 µg/mL (≈ 32.4 µM)
[6]
  MIC: 16 µg/mL (≈ 32.4 µM)
[7]
  MIC: 2 µg/mL (≈ 4.05 µM)

## CO/N=C1\CN(c2nc3c(cc2F)c(=O)c(C(=O)O)cn3C2CC2)CCC1N (stereo not drawn)
[1]
  MIC: 2 µg/mL (≈ 5.14 µM)
[2]
  MIC: 4 µg/mL (≈ 10.3 µM)
[3]
  MIC: 2 µg/mL (≈ 5.14 µM)
[4]
  MIC: 2 µg/mL (≈ 5.14 µM)
[5]
  MIC: 1 µg/mL (≈ 2.57 µM)
[6]
  MIC: 1 µg/mL (≈ 2.57 µM)
[7]
  MIC: 1 µg/mL (≈ 2.57 µM)

## CO/N=C1\CCN(c2nc3c(cc2F)c(=O)c(C(=O)O)cn3C2CC2)CC1N(C)C (stereo not drawn)
[1]
  MIC: 0.004 µg/mL (≈ 0.00958 µM)
[2]
  MIC: 1 µg/mL (≈ 2.4 µM)
[3]
  MIC: 0.015 µg/mL (≈ 0.0359 µM)
[4]
  MIC: 0.015 µg/mL (≈ 0.0359 µM)
[5]
  MIC: 8 µg/mL (≈ 19.2 µM)
[6]
  MIC: 1 µg/mL (≈ 2.4 µM)
[7]
  MIC: 0.125 µg/mL (≈ 0.299 µM)

## CNC1CN(c2nc3c(cc2F)c(=O)c(C(=O)O)cn3C2CC2)CC/C1=N\OCc1ccccc1 (stereo not drawn)
[1]
  MIC: 0.125 µg/mL (≈ 0.261 µM)
[2]
  MIC: 16 µg/mL (≈ 33.4 µM)
[3]
  MIC: 0.25 µg/mL (≈ 0.521 µM)
[4]
  MIC: 0.125 µg/mL (≈ 0.261 µM)
[5]
  MIC: 16 µg/mL (≈ 33.4 µM)
[6]
  MIC: 16 µg/mL (≈ 33.4 µM)
[7]
  MIC: 2 µg/mL (≈ 4.17 µM)

## CCCO/N=C1\CCN(c2nc3c(cc2F)c(=O)c(C(=O)O)cn3C2CC2)CC1N(C)C (stereo not drawn)
[1]
  MIC: 0.5 µg/mL (≈ 1.12 µM)
[2]
  MIC: 2 µg/mL (≈ 4.49 µM)
[3]
  MIC: 0.125 µg/mL (≈ 0.281 µM)
[4]
  MIC: 0.25 µg/mL (≈ 0.561 µM)
[5]
  MIC: 16 µg/mL (≈ 35.9 µM)
[6]
  MIC: 16 µg/mL (≈ 35.9 µM)
[7]
  MIC: 2 µg/mL (≈ 4.49 µM)

## CO/N=C1\CCN(c2nc3c(cc2F)c(=O)c(C(=O)O)cn3C2CC2)CC1N (stereo not drawn)
[1]
  MIC: 4 µg/mL (≈ 10.3 µM)
[2]
  MIC: 16 µg/mL (≈ 41.1 µM)
[3]
  MIC: 4 µg/mL (≈ 10.3 µM)
[4]
  MIC: 8 µg/mL (≈ 20.5 µM)
[5]
  MIC: 8 µg/mL (≈ 20.5 µM)
[6]
  MIC: 2 µg/mL (≈ 5.14 µM)
[7]
  MIC: 4 µg/mL (≈ 10.3 µM)

## CCO/N=C1\CN(c2nc3c(cc2F)c(=O)c(C(=O)O)cn3C2CC2)CCC1NC (stereo not drawn)
[1]
  MIC: < 0.001 µg/mL
[2]
  MIC: 2 µg/mL (≈ 4.79 µM)
[3]
  MIC: < 0.001 µg/mL
[4]
  MIC: < 0.001 µg/mL
[5]
  MIC: 4 µg/mL (≈ 9.58 µM)
[6]
  MIC: 1 µg/mL (≈ 2.4 µM)
[7]
  MIC: 0.06 µg/mL (≈ 0.144 µM)
